Assays:
[1] = tested on: PMA-induced cell proliferation in mouse ear epidermis; assay: Mouse ear cell proliferation assay (IUdR incorporation, PCNA histology); assay type: in vivo; conditions: +PMA 4 μg/ear; scytonemin 1 mg/ear, dexamethasone 0.15 mg/ear
Experimental: To determine the efficacy of scytonemin as an anti-proliferative agent in vivo, the following assay was conducted. On day one, test compounds were delivered in 10 μl 20% DMSO, 80% acetone and applied to both the inner and outer pinnae of left ears (20 μl total) of male, Swiss Webster mice (Taconic Farms, Germantown, N.Y.). The right ears received only vehicle. One hour post test compound application, 4 μg/ear PMA (Sigma, St. Louis, Mo.) in 10 μl acetone was applied to the inner pinnae of each left ear and 10 μl acetone was applied to each right ear. Four hours post test compound application, the each test compound was again applied in the same manner. On day two, the test compounds were applied twice with a four-hour interval between each application. On day three, the test compounds and PMA were applied as they had been on day one.
One hour after the final test compound applications, each mouse was injected with 0.6 ml of a solution containing the thymidine analogue, 5-iodo-I^125-2′-deoxyuridine (IUdR) (2 μCi-I^125/mouse) and, to inhibit the endogenous deoxythymidilic acid synthetase, fluorodeoxyuridine (FUdR) ([…]). This IUdR/FUdR solution was made up in RPMI 1640 media. Eighteen hours post injection, the mice were euthanized via CO2 inhalation, the ears were excised and soaked individually in a 70% EtOH solution overnight.
IUdR incorporation was then measured using a Beckman Gamma counter, Model 5500B. […] Therefore, scytoneman compounds may be used to reduce, prevent, inhibit, modulate, or attenuate cell proliferation.
Additionally, immunostaining with Proliferating Cell Nuclear Antigen (PCNA) was used as a proliferation marker to identify proliferating cells. PCNA is a cofactor for DNAt […]. Expression levels of PCNA fluctuate over the cell cycle. […] Low expression levels of PCNA indicate non-cycling cells.
Histological analysis was used to determine the effect of scytonemin on the thickness of the epidermal layer of skin, the mitotic index of cells in the epidermal layer, the number of cells in the epidermis, and the amount of immune cell infiltration. PCNA antibodies were used to detect the presence of PCNA in cells and a peroxidase-Ni/DAB development system was used to stain PCNA-positive cells black and hematoxlin was used as a nuclear blue counterstain using conventional methods.

Jurkat T cells = assay: Apoptosis assay (TUNEL, flow cytometry); assay type: cell-based; conditions: 3 μM, 24 hours
Experimental: To determine the mechanism behind the ability of SCY to inhibit cell proliferation, about 2×10^5 Jurkat T cells/ml were treated with vehicle (negative control), 3 μM SCY, or 3 μM camptothecin (positive control) a (0.1% DMSO[final]) and incubated at 37° C., 5% CO2 for 24 hours. As a positive control, camptothecin, a DNA topoisomerase inhibitor, was used because of its ability to arrest Jurkat cells at the G2/M phase of the cell cycle and induce the cells to undergo apoptosis. The cells were fixed in 1% paraformaldehyde, washed once with PBS, and stored in 70% EtOH at−20° C. Apoptosis was measured using the Promega Apoptosis Detection System (Promega, Madison, Wis.) an adapted TUNEL staining method.
The cells were washed two times with 5 ml PBS 2% FBS, then transferred to a microcentrifuge tube in 1 ml PBS, 0.2% Triton×100, 5 mg/ml BSA and incubated on ice for 5 minutes. Samples were spun, PBS solution removed, then resuspended in 80 μl equilibration buffer from Promega kit and incubated at room temperature for 10 minutes. Then the samples were spun and the equilibration buffer removed. A nucleotide mix comprising 45 μl equilibration buffer, 5 μl nucleotide mix, 1 μl Tdt enzyme per sample, was used to resuspend each sample in the dark. The cells were incubated in the dark at 37° C. for 1 hour. The reaction was terminated by the addition of 20 mM EDTA. The samples were washed twice with 1 ml RNAse A and a small aliquot, about 50 μl, was viewed under a microscope. Cells were stained with fluoroscein and then counterstained with propidium iodide and analyzed for DNA content and fragmentation using a Becton-Dickinson FacsSort (Becton-Dickinson, San Jose, Calif.).

## C[C@@H]1C[C@H]2[C@@H]3CCC4=CC(=O)C=C[C@]4(C)[C@@]3(F)[C@@H](O)C[C@]2(C)[C@@]1(O)C(=O)CO [dexamethasone, reference compound]
[1]
  cells actively proliferating (PCNA staining): about 60%

## CC[C@@]1(O)C(=O)OCc2c1cc1n(c2=O)Cc2cc3ccccc3nc2-1 [camptothecin, reference compound]
Jurkat T cells
  cells induced to undergo apoptosis: 71%
  effect on cell cycle progression: arrested the cells at G2/M phase

From patent publication US6495588B2, “Scytonemin and methods of using thereof” (The Regents of the University of California, priority 2000, dated 2002)
